Marks after values point to notes of the source that are not given here.
Columns and labels:
[1] = tested on: TGF-β secretion by spleen and MLN cells; assay: TGF-β secretion by spleen and MLN cells (ELISA); type: cell-based; settings: colitis-induced BALB/c mice treated with GA; anti-CD3 stimulation
Description: FIGS. 6A-6B show the effect of GA treatment on TGF-β secretion by lymphocytes of TNBS-induced BALB/c mice. Cells of spleen or mesenteric lymph nodes (MLN) from normal mice, colitis-induced mice, and colitis-induced mice treated with GA were cultured either with GA (50 μg/ml) (FIG. 6A) or immobilized anti-CD3 (5 μg/ml) (FIG. 6B). After 72 hours, supernatants from six culture wells were pooled and TGF-β was measured by ELISA in duplicates. Results are expressed as TGF-β concentration (pg/ml±1 SD) and represent one of two similar experiments, using pooled cells from 3-5 mice in each group. # Indicates significant decrease in TGF-β in colitic mice in comparison to normal mice. * Indicates significant increase in TGF-β induced by GA treatment in comparison to untreated colitis induced mice.
Reactivity assays. Spleens and mesenteric lymph nodes (MLN) cells (0.5×10^6 cell/well) were cultured with either GA (50 μg/ml), colon extract (200 μg/ml), immobilized anti-CD3 (5 μg/ml), or PBS control, in a final volume of 250 μl/well (6 wells for each antigen). For proliferation assay, cells were cultured in RPMI 1640 with 10% FCS, pulsed with 1 μCi of [3H] thymidine after 48 h incubation, and harvested 12 h later. […]

TNBS-induced colitis = TNBS-induced colitis in BALB/c mice, oral GA treatment; type: in vivo; parameters: key to Macroscopic scoring of colon damage: Ulceration (max 10): 0 = completely normal, 10 = most severe ulceration; key to Macroscopic scoring of colon damage: Adhesion (max 2): adhesions score 0 to 2; key to Macroscopic scoring of colon damage: Diarrhea (max 1): diarrhea score 0 to 1; key to Macroscopic scoring of colon damage: Thickness (max 1): thickness score 0 to 1
Description: Induction of cholitis in mice. TNBS-colitis was induced by rectal instillation of 2,4,6-trinitrobenzene sulfonic acid 5% (w/v), mixed with an equal volume of ethanol, into anesthetized mice (100 μl/mouse). Each treatment group included 6-12 mice. Mice that died before day 4 were considered as treatment casualties and were not taken into consideration.
Assessment of colitis. Weight changes and survival were monitored daily. Five to eight days following TNBS instillation, mice were sacrificed and macroscopic as well as microscopic colonic damage was evaluated.
Macroscopic colonic scoring. Gross colonic damage was graded according to Reuter et al. (1996), using the combined values of the four standard macroscopic parameters: degree of colonic ulcerations (scale from 0—completely normal, to 10—most severe); intestinal and peritoneal adhesions (0 to 2); diarrhea (0 to 1); and thickness (0 to 1). The total score is the arithmetic sum of the four scores. The evaluation was performed in a blind procedure.
Microscopic scoring. Proximal, medial, and distal portions of colon were fixed in 10% phosphate-buffered formalin. Paraffin-embedded sections were stained with hematoxylin and eosin. The degree of histological damage and inflammation was graded according to Elson et al. (1996) using the combined values of the four microscopic parameters: extent (scale from 0—completely normal, to 2—involving more than one segment); inflammation (0—none to 3—severe); damage (0 to 3—severe transmural); and regeneration (0—complete re-eptihelization to 3—none). The total score is the arithmetic sum of the four scores. The evaluation was performed in a blind procedure.
Oral treatment—250 μg/day in PBS, fed by gastric intubation with an 18-gauge stainless steel feeding needle. Unless otherwise stated, feedings were performed on days-7, -5, -3, -1, 0, 2, 4 and 6, relative to the day of TNBS instillation.
Colitis was induced by TNBS in 50% ethanol. […] Colonic scoring was performed 7 or 8 days after disease induction. Mice that died during the first 2 days (usually around 20% in all groups) were considered as treatment casualties and thus are not presented; each group contained 4-7 mice that survived after day 2.

[2] = Average of three experiments, GA oral 250 μg/mouse every other day from day −7, scoring 7 or 8 days after induction
[3] = Exp. No. 1, GA oral 250 μg/mouse every other day from day −7, scoring 7 or 8 days after induction
[4] = Exp. No. 2, GA oral 250 μg/mouse every other day from day −7, scoring 7 or 8 days after induction
[5] = Exp. No. 3, GA oral 250 μg/mouse every other day from day −7, scoring 7 or 8 days after induction
[6] = GA no colitis (GA oral without TNBS induction)
[7] = Timing study, GA oral 250 μg/mouse every other day starting day 0, 8 feedings
[8] = Timing study, GA oral 250 μg/mouse every other day starting day +2, 6 feedings
[9] = Timing study, GA oral 250 μg/mouse every other day starting day −3, 8 feedings
[10] = Timing study, GA oral 250 μg/mouse every other day starting day −7, 8 feedings

## glatiramer acetate [GA]
[1]
  TGF-β secretion in the MLN relative to the secretion of normal mice: 2.2 folds
TNBS-induced colitis; [2]
  Macroscopic scoring of colon damage: Adhesion (max 2): 0.4
  Macroscopic scoring of colon damage: Diarrhea (max 1): 0.2
  Macroscopic scoring of colon damage: Thickness (max 1): 0.0
  Macroscopic scoring of colon damage: Ulceration (max 10): 2.1
TNBS-induced colitis; [3]
  Macroscopic scoring of colon damage: Adhesion (max 2): 0.6
  Macroscopic scoring of colon damage: Diarrhea (max 1): 0.0
  Macroscopic scoring of colon damage: Thickness (max 1): 0.0
  Macroscopic scoring of colon damage: Total Score (max 14): 1.6*
  Macroscopic scoring of colon damage: Ulceration (max 10): 1.0
TNBS-induced colitis; [4]
  Macroscopic scoring of colon damage: Adhesion (max 2): 0.5
  Macroscopic scoring of colon damage: Diarrhea (max 1): 0.5
  Macroscopic scoring of colon damage: Thickness (max 1): 0.0
  Macroscopic scoring of colon damage: Total Score (max 14): 4.4*
  Macroscopic scoring of colon damage: Ulceration (max 10): 3.4
TNBS-induced colitis; [5]
  Macroscopic scoring of colon damage: Adhesion (max 2): 0.1
  Macroscopic scoring of colon damage: Diarrhea (max 1): 0.0
  Macroscopic scoring of colon damage: Thickness (max 1): 0.0
  Macroscopic scoring of colon damage: Total Score (max 14): 2.1*
  Macroscopic scoring of colon damage: Ulceration (max 10): 2.0
TNBS-induced colitis; [6]
  Macroscopic scoring of colon damage: Adhesion (max 2): 0.0
  Macroscopic scoring of colon damage: Diarrhea (max 1): 0.0
  Macroscopic scoring of colon damage: Thickness (max 1): 0.0
  Macroscopic scoring of colon damage: Total Score (max 14): 0.0
  Macroscopic scoring of colon damage: Ulceration (max 10): 0.0
TNBS-induced colitis; GA oral feedings started seven days before TNBS, total of 8 feedings every other day
  Reduction in disease severity (total macroscopic score) versus control: 5.2 fold
TNBS-induced colitis; GA oral treatment started on the day of TNBS inoculation, or two days after disease induction
  Reduction in disease severity (total macroscopic score) versus control: 2.2 fold
TNBS-induced colitis; GA oral treatment started three days before induction
  Reduction in disease severity (total macroscopic score) versus control: 2.75 fold
TNBS-induced colitis; GA oral, 8 days after induction
  Mortality due to the disease process: 20%
TNBS-induced colitis; GA oral, day 7, p=0.007
  Reduction of average histological score versus colitis group: 2.8 folds
TNBS-induced colitis; GA oral, mice surviving till day 7
  Average histological score (from a maximal score of 12.0): 2.8
TNBS-induced colitis; GA treatment without TNBS induction
  Histological or macroscopic damage: did not result in any histological or macroscopic damage
TNBS-induced colitis; [7]
  Macroscopic scoring of colon damage: Adhesion (max 2): 0.7
  Macroscopic scoring of colon damage: Diarrhea (max 1): 0.0
  Macroscopic scoring of colon damage: Thickness (max 1): 0.0
  Macroscopic scoring of colon damage: Total Score (max 14): 5.0*
  Macroscopic scoring of colon damage: Ulceration (max 10): 4.3
TNBS-induced colitis; [8]
  Macroscopic scoring of colon damage: Adhesion (max 2): 0.3
  Macroscopic scoring of colon damage: Diarrhea (max 1): 0.0
  Macroscopic scoring of colon damage: Thickness (max 1): 0.0
  Macroscopic scoring of colon damage: Total Score (max 14): 5.0*
  Macroscopic scoring of colon damage: Ulceration (max 10): 4.7
TNBS-induced colitis; [9]
  Macroscopic scoring of colon damage: Adhesion (max 2): 0.5
  Macroscopic scoring of colon damage: Diarrhea (max 1): 0.0
  Macroscopic scoring of colon damage: Thickness (max 1): 0.0
  Macroscopic scoring of colon damage: Total Score (max 14): 4.0*
  Macroscopic scoring of colon damage: Ulceration (max 10): 3.5
TNBS-induced colitis; [10]
  Macroscopic scoring of colon damage: Adhesion (max 2): 0.1
  Macroscopic scoring of colon damage: Diarrhea (max 1): 0.0
  Macroscopic scoring of colon damage: Thickness (max 1): 0.0
  Macroscopic scoring of colon damage: Total Score (max 14): 2.1*
  Macroscopic scoring of colon damage: Ulceration (max 10): 2.0
TNBS-induced colitis; average of three experiments, GA oral 250 μg/mouse, alternate days from day −7, 8 feedings
  Decrease of total macroscopic damage versus control: 3.8 fold
TNBS-induced colitis; colons from two TNBS-induced mice treated orally with GA (0.25 mg/mouse, 8 feedings), 7 days after TNBS, focal hyperemia only
  Macroscopic grade of representative colons (FIG. 1A): 1
TNBS-induced colitis; mice fed with GA, by day 3 after TNBS inoculation
  Maximum weight loss (of body weight): 5%
TNBS-induced colitis; mice fed with GA, day after TNBS inoculation
  Complete restoration of original weight: ≤ 5 days

— patent publication US8008258B2, “Cop 1 for treatment of inflammatory bowel diseases” (Yeda Research and Development Co. Ltd., priority 2003, dated 2011)
